Data taken from patent US10532085B2, “Methods for increasing intracellular activity of Hsp70” (Orphazyme A/S, priority 2010, dated 2020).

Tests used:
Format in all cases: cell-based, Human
[1] = system: U2OS osteosarcoma cells; test: Endocytic uptake of Alexa Fluor-488-labelled BSA (BSA*); conditions: 20 μg/mL BSA* for 24 h with 3000 nM rHsp70 vs BSA* alone
Method: FIG. 4: Hsp70 increases endocytic uptake of other molecules. Panel A: immortalized mouse embryonic fibroblasts (iMEF), either wildtype (WT) or transgenic for Hsp70 (TG) where incubated with 20 μg/mL Alexa Fluor-488-labelled BSA (BSA*) for 24 h. Endocytic uptake was verified by fluorescence microscopy (not shown). Cells where then harvested and analyzed for uptake of BSA*. […] Panel B: U2OS osteosarcoma cells where incubated with 20 μg/mL BSA* for 24 h either with 3000 nM rHsp70 or without as indicated. Endocytic uptake was verified by fluorescence microscopy (not shown). Cells where then harvested and analyzed for uptake of BSA*.

[2] = system: U-2-OS cells; test: Lysosomal integrity upon photo-oxidation (acridine orange and blue light)
Method: (§1) FIG. 2: Lysosomal Hsp70 stabilizes lysosomal membranes. (a) Representative confocal images of U-2-OS cells incubated with 300 nM rHsp70-AF488 (green) for 24 h, fixed and stained for lysosomal integral membrane protein-1 (LIMP-1; red). For co-localization with other organelle markers see FIG. 3. (b) U-2-OS cells were incubated with 300 nM rHsp70-AF488 for 24 h before quantification of rHsp70-AF488 in membranes (memb.) and supernatant (sup.) obtained by repeated freeze/thaw cycles and centrifugation the light membrane fraction (LMF). […] (c) Representative still images of U-2-OS cells exposed to photo-oxidation (acridine orange and blue light). The loss of lysosomal integrity is visualized by the loss of red and increase in green staining. (d and e) U-2-OS cells were incubated with indicated recombinant proteins (300 nM) for 24 h, and analyzed for lysosomal integrity upon photo-oxidation. When indicated, cells were treated with indicated siRNAs for 48 h prior to the addition of recombinant proteins (e). The values represent means±SD (standard deviation) for three (d) or five (e) independent experiments. Representative immunoblots of indicated proteins from U-2-OS cells left untreated or treated with control or Hsp70 siRNAs are shown on the right. Scale bars: 20 μm (a and c).
WT- and Hsp70-MEFs were generated, immortalized and maintained as described in the art. Human NPDA fibroblasts (83/24) originate from a skin biopsy of a patient with hepatosplenomegaly. Recombinant proteins were generated using the pET-16b vector system and Ni^2+-affinity-purification (Novagen), and labeled with Alexa Fluor 488 according to manufacturers protocol (Molecular Probes). To analyze the lysosomal integrity, we developed a real time imaging method of cells stained with acridine orange, a metachromatic weak base that accumulates in the acidic compartment of the cells staining them red and sensitizing them to photo-oxidation. The photo-oxidation-induced loss of the lysosomal pH-gradient and leakage of acridine orange to the cytosol from individual lysosomes was quantified visually as “loss of red dots” in U2-O—S cells and as a decrease in red and an increase in green fluorescence by Zeiss LSM DUO Software in fibroblasts. The total and cytoplasmic (digitonin-extracted) cathepsin activities were measured in digitonin-treated samples using zFR-AFC (Enzyme System Products) probe as described in the art. The tryptophan fluorescence spectra and liposome 90° light scattering were analyzed in a HEPES buffer (20 mM HEPES, 0.1 mM EDTA, pH as indicated) essentially as described in the art. Surface plasmon resonance measurements were performed with immobilized LUVs using a BIAcore 2000 system as described in the art. Hsp70 siRNA (5′-[…]-3′) and a […] were transfected with Oligofectamine (Invitrogen). Immunodetection was performed with standard protocols. Apoptosis-like cell death and lysosomal membrane permeabilization were analyzed essentially as described in the art. ASM activity was analyzed by Amplex Red Sphingomyelinase Assay Kit (A12220) from Molecular Probes with modifications described in the art. Statistical analysis was performed using a two-tailed, paired Student's T-test and all groups of data were tested for the comparability of their variances using an F-test.
Sub-confluent cells incubated with 2 μg/ml acridine orange for 15 min at 37° C. were washed, irradiated and analyzed in Hanks balanced salt solution complemented with 3% fetal calf serum. Cells for single cell imaging were selected from 8 pre-defined areas of each well in transmitted light-mode after which the same cells were immediately visualized and exposed to blue light from USH102 100W mercury arc burner (Ushio electric) installed in a U-ULS100HG housing (Olympus) for 20 sec. Fluorescence microscopy was performed on Olympus IX-70 inverted microscope with a LCPlanF1 ×20 objective with NA=0.40. […]

[3] = system: U-2-OS osteosarcoma cells; test: Uptake and localization of fluorochrome-labeled recombinant protein; conditions: 300 nM rHsp70-AF488, 24 h
Method: as §1
FIG. 3: Colocalization of endocytosed rHsp70-AF488 with lysosomes. […]

## rHsp70: recombinant (human) heat shock protein 70; in some tests labelled with Alexa Fluor 488
[1]
  uptake of BSA*: significantly higher uptake of BSA*
[2]; recombinant proteins 300 nM, 24 h
  protection of lysosomes against photo-oxidation (lysosomal stabilization): protected lysosomes against photo-oxidation
[2]; siRNA 48 h prior to addition of recombinant protein (300 nM)
  reversal of Hsp70 siRNA-induced sensitization to photo-oxidation: fully reverted
[3]
  uptake, co-localization and membrane binding: effective uptake of rHsp70, its specific co-localization with late endosomal and lysosomal markers and binding to lysosomal membranes
